Biological target: recombinant human CCR5 receptor (Homo sapiens, UniProt P51681)
Test: in vitro radioligand binding assay: inhibition of iodinated MIP-1α binding to CCR5 membranes (scintillation proximity)
Details: displacement of 0.1 nM iodinated MIP-1α; membranes from Chinese hamster ovary cells expressing recombinant human CCR5; average if tested more than once
Protocol: The ability of compounds to inhibit the binding of MIP-1α was assessed by an in vitro radioligand binding assay. Membranes were prepared from Chinese hamster ovary cells which expressed the recombinant human CCR5 receptor. These membranes were incubated with 0.1 nM iodinated MIP-1α, scintillation proximity beads and various concentrations of the compounds of the invention in 96-well plates. The amount of iodinated MIP-1α bound to the receptor was determined by scintillation counting. Competition curves were obtained for compounds and the concentration of compound which displaced 50% of bound iodinated MIP-1α was calculated (IC50).
In Table VI the results are presented as Pic50 values. A Pic50 value is the negative log (to base 10) of the IC50 result, so an IC50 of 1 μM (that is 1×10^−6M) gives a Pic50 of 6. If a compound was tested more than once then the data below is an average of the probative tests results.

Sequence of recombinant human CCR5 receptor (P51681 whole entry): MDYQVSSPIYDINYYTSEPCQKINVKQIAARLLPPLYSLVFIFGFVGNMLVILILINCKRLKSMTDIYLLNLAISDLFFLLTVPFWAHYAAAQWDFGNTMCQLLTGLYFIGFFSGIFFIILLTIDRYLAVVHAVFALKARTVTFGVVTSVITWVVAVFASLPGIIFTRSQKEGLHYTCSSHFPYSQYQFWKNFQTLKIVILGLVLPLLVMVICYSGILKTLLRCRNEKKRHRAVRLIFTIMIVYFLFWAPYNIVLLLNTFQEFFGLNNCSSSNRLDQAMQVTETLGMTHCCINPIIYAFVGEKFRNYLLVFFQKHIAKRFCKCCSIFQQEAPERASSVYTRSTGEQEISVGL

IC50	Structure (SMILES)
7.94 nM	CC(=O)Nc1ccc(S(=O)(=O)NCC2CCN(CC[C@@H](c3cc(F)cc(F)c3)C3CCN(S(C)(=O)=O)CC3)CC2)cc1 [Compound 4 (Table I), N-[4-({[(1-{(3R)-3-(3,5-difluorophenyl)-3-[1-(methylsulfonyl)piperidin-4-yl]propyl}piperidin-4-yl)methyl]amino}sulfonyl)phenyl]-acetamide]
50.1 nM	CS(=O)(=O)c1ccc([C@@H](CCN2CCC(CNS(=O)(=O)c3ccc(NS(=O)(=O)C(F)(F)F)cc3)CC2)c2cc(F)cc(F)c2)cc1 [Compound 16 (Table II), N-[(1-{(3R)-3-(3,5-difluorophenyl)-3-[4-(methylsulfonyl)phenyl]propyl}piperidin-4-yl)methyl]-4-{[(trifluoromethyl)sulfonyl]amino}-benzenesulfonamide]
7.94 nM	CS(=O)(=O)c1ccc([C@@H](CCN2CCC(CNS(=O)(=O)c3ccc(-c4nnn[nH]4)cc3)CC2)c2cc(F)cc(F)c2)cc1 [Compound 19 (Table II), N-[(1-{(3R)-3-(3,5-difluorophenyl)-3-[4-(methylsulfonyl)phenyl]propyl}piperidin-4-yl)methyl]-4-(1H-tetrazol-5-yl)-benzenesulfonamide]
